What all share (format): functional, cell-based
For one test, the system named is HepG2. The test can be described thus: Cytotoxicity in human HepG2 cells assessed as reduction in cell viability incubated for 72 hrs by MTT assay. The conditions noted are these: HepG2, 72 h.
Test [1] relates to HT-29. The test is described as follows: Cytotoxicity in human HT-29 cells assessed as reduction in cell viability incubated for 72 hrs by MTT assay. Particulars: HT-29, 72 h.
The subject of a further test is BGC-823. The test can be described thus: Cytotoxicity in human BGC823 cells assessed as reduction in cell viability incubated for 72 hrs by MTT assay. Particulars: BGC-823, 72 h.
A further test deals with HeLa. The test is described as follows: Cytotoxicity in human HeLa cells assessed as reduction in cell viability incubated for 72 hrs by MTT assay.
Another test concerns HCT-8. The test is described as follows: Cytotoxicity in human HCT8 cells assessed as reduction in cell viability incubated for 96 hrs by SRB assay. Particulars: HCT-8, 96 h.
In a further test the test system is 4T1. The test can be described thus: Cytotoxicity in mouse 4T1 cells assessed as reduction in cell viability incubated for 96 hrs by SRB assay. The conditions noted are these: 4T1, 96 h.
The next test has as its system DU-145. The test is described as follows: Cytotoxicity in human DU145 cells assessed as reduction in cell viability incubated for 96 hrs by SRB assay. The conditions noted are these: DU-145, 96 h.
For test [2], the system named is HT-29. The test can be described thus: Cytotoxicity in human HT-29 cells assessed as reduction in cell viability incubated for 96 hrs by SRB assay. The conditions noted are these: HT-29, 96 h.
The test system of the next test is PC-3. The test can be described thus: Cytotoxicity in human PC3 cells assessed as reduction in cell viability incubated for 96 hrs by SRB assay. Particulars: PC-3, 96 h.
The test system of test [3] is MDA-MB-231. The test can be described thus: Cytotoxicity in human MDA-MB-231 cells assessed as reduction in cell viability incubated for 96 hrs by SRB assay. The conditions noted are these: MDA-MB-231, 96 h.
Another test concerns HCT-116. The test is described as follows: Cytotoxicity in human HCT116 cells assessed as reduction in cell viability incubated for 96 hrs by SRB assay. The conditions noted are these: HCT-116, 96 h.
The subject of the next test is CT26. The test is described as follows: Cytotoxicity in mouse CT26 cells assessed as reduction in cell viability incubated for 96 hrs by SRB assay. The conditions noted are these: CT26, 96 h.
The subject of a further test is MCF7. The test is described as follows: Cytotoxicity in human MCF7 cells assessed as reduction in cell viability incubated for 24 hrs by MTT assay. Particulars: MCF7, 24 h.
The next test deals with TERT-RPE1. The test is described as follows: Cytotoxicity in human hTERT-RPE1 cells assessed as reduction in cell viability incubated for 24 hrs by MTT assay. Particulars: RPE-1, 24 h.
For test [4], the system named is MDA-MB-231. The test can be described thus: Cytotoxicity in human MDA-MB-231 cells assessed as reduction in cell viability incubated for 24 hrs by MTT assay. The conditions noted are these: MDA-MB-231, 24 h.

SMILES strings stand for the structures.

`Cc1nc(C)c(COC(=O)[C@]23CCC(C)(C)C[C@H]2C2=CC[C@@H]4[C@@]5(C)CC[C@H](OC(=O)[C@@H](N)CO)C(C)(C)[C@@H]5CC[C@@]4(C)[C@]2(C)CC3)nc1C`: the IC50 in the test with HepG2 stood at 4.78 µM; with HT-29 [1], 4.82 µM; with BGC-823, 4.89 µM; in the test on HeLa, 5.21 µM.
Take `C[C@H]1[C@H](C)CC[C@]2(C(=O)OCCN3CCOCC3)CC[C@]3(C)C(=CC[C@@H]4[C@@]5(C)CC[C@H](O)C(C)(C)[C@@H]5CC[C@]43C)[C@H]12`: the IC50 with BGC-823 was 8.8 µM.
`C[C@H]1[C@H](C)CC[C@]2(C(=O)OCCCCN3CCCCC3)CC[C@]3(C)C(=CC[C@@H]4[C@@]5(C)CC[C@H](O)C(C)(C)[C@@H]5CC[C@]43C)[C@H]12`: the IC50 in the test on BGC-823 worked out at 5 µM.
On the same count and under the same terms, in the case of `C[C@H]1[C@H](C)CC[C@]2(C(=O)OCCCN3CCCC3)CC[C@]3(C)C(=CC[C@@H]4[C@@]5(C)CC[C@H](O)C(C)(C)[C@@H]5CC[C@]43C)[C@H]12` it was 7.6 µM; in that of `C[C@H]1[C@H](C)CC[C@]2(C(=O)OCCCN3CCCCC3)CC[C@]3(C)C(=CC[C@@H]4[C@@]5(C)CC[C@H](O)C(C)(C)[C@@H]5CC[C@]43C)[C@H]12`, 7.2 µM.
As for `COC(=O)[C@@]1(C)CC[C@]2(C)CC[C@]3(C)C(=CC(=O)[C@@H]4[C@@]5(C)Cc6c[nH]nc6C(C)(C)[C@@H]5CC[C@]43C)[C@H]2C1`, the IC50 with HCT-8 was found to be 31.5 µM; with 4T1, 14.7 µM; in the test with DU-145 it was 30.3 µM; with HT-29 [2], 32 µM; with PC-3, 26.5 µM; in the test on MDA-MB-231 [3] it was 33.2 µM. In addition, the concentration for half-maximal inhibition (IC50) in the test on HCT-116 stood at 13.2 µM; with CT26, 26.1 µM.
With `C[C@H]1[C@H](C)CC[C@]2(C(=O)OCCCCN3CCCC3)CC[C@]3(C)C(=CC[C@@H]4[C@@]5(C)CC[C@H](O)C(C)(C)[C@@H]5CC[C@]43C)[C@H]12`, in the test on BGC-823, the half-maximal inhibitory concentration (IC50) was 7.2 µM.
For the compound `COC(=O)[C@@]1(C)CC[C@]2(C)CC[C@]3(C)C(=CC(=O)[C@@H]4[C@@]5(C)Cc6cn(C(=O)CCC7CCNCC7)nc6C(C)(C)[C@@H]5CC[C@]43C)[C@H]2C1`, the 50% inhibitory concentration (IC50) in the test with HCT-8 is 13.6 µM; in the test on 4T1 it was 5.77 µM; in the test on DU-145, 13.9 µM; in the test on HT-29 [2] it was 12.5 µM; in the test with PC-3 it was 12 µM; in the test with MDA-MB-231 [3] it was 9.56 µM. In addition, the IC50 in the test on HCT-116 came out at 6.36 µM; in the test with CT26 it was 13 µM.
On to `C[C@H]1[C@H](C)CC[C@]2(C(=O)OCCCBr)CC[C@]3(C)C(=CC[C@@H]4[C@@]5(C)CC[C@H](O)C(C)(C)[C@@H]5CC[C@]43C)[C@H]12` [BROMOPROPYL-3BETA-HYDROXY-URS-12-EN-28-OATE], for which the IC50 with BGC-823 turned out to be 6.5 µM.
As for `CCOC(=O)c1[nH]nc2c1C[C@]1(C)[C@H]3C(=O)C=C4[C@H]5C[C@@](C)(C(=O)OCc6ccccc6)CC[C@]5(C)CC[C@@]4(C)[C@]3(C)CC[C@H]1C2(C)C`, the IC50 is 9.96 µM in the test with HCT-8; 5.75 µM in the test with 4T1; 23.8 µM in the test on DU-145; 12.5 µM with HT-29 [2]; 19.6 µM with PC-3; 16.6 µM in the test on MDA-MB-231 [3]. The IC50 was determined as 8.2 µM with HCT-116 and 17.7 µM with CT26.
With `Cc1nc(C)c(COC(=O)[C@]23CCC(C)(C)C[C@H]2C2=CC[C@@H]4[C@@]5(C)CC[C@H](OC(=O)[C@H](C)N)C(C)(C)[C@@H]5CC[C@@]4(C)[C@]2(C)CC3)nc1C`, the IC50 is 2.32 µM in the test on HepG2, 4.77 µM in the test with HT-29 [1], 4.47 µM in the test on BGC-823 and 7.69 µM in the test with HeLa.
As to `C[C@H]1[C@H](C)CC[C@]2(C(=O)OCCCCN3CCOCC3)CC[C@]3(C)C(=CC[C@@H]4[C@@]5(C)CC[C@H](O)C(C)(C)[C@@H]5CC[C@]43C)[C@H]12`, in the test on BGC-823, the concentration for half-maximal inhibition (IC50) was found to be 6.5 µM.
For the compound `C[C@H]1[C@H](C)CC[C@]2(C(=O)OCCCN3CCOCC3)CC[C@]3(C)C(=CC[C@@H]4[C@@]5(C)CC[C@H](O)C(C)(C)[C@@H]5CC[C@]43C)[C@H]12`, in the test with BGC-823, the IC50 worked out at 7.3 µM.
Consider `COC(=O)/C=C/c1ccc(OC(=O)[C@@]2(C)CC[C@]3(C)CC[C@]4(C)C(=CC(=O)[C@@H]5[C@@]6(C)CC[C@H](OC(=O)[C@@H](N)CCSC)C(C)(C)[C@@H]6CC[C@]54C)[C@H]3C2)cc1`, for which the figures for the IC50 with MCF7, in the test with TERT-RPE1 and in the test with MDA-MB-231 [4] were 7.24 µM, 8.48 µM and 6.43 µM, respectively.
`C[C@H]1[C@H](C)CC[C@]2(C(=O)OCCN3CCCC3)CC[C@]3(C)C(=CC[C@@H]4[C@@]5(C)CC[C@H](O)C(C)(C)[C@@H]5CC[C@]43C)[C@H]12`: the IC50 in the test with BGC-823 is 4.5 µM.
As to `Cc1nc(C)c(COC(=O)[C@]23CCC(C)(C)C[C@H]2C2=CC[C@@H]4[C@@]5(C)CC[C@H](OC(=O)[C@@H]6CCCN6)C(C)(C)[C@@H]5CC[C@@]4(C)[C@]2(C)CC3)nc1C`, the IC50 is 2.39 µM in the test with HepG2, 3.21 µM with HT-29 [1], 4.97 µM in the test with BGC-823 and 6.75 µM with HeLa.
As for `CCOC(=O)/C=C/c1ccc(OC(=O)[C@@]2(C)CC[C@]3(C)CC[C@]4(C)C(=CC(=O)[C@@H]5[C@@]6(C)CC[C@H](OC(=O)[C@@H](N)CCSC)C(C)(C)[C@@H]6CC[C@]54C)[C@H]3C2)c(OC)c1`, the results for the IC50 in the test on MCF7, with TERT-RPE1 and in the test on MDA-MB-231 [4] were 8.62 µM, 16.3 µM and 5.36 µM, respectively.
For `CCOC(=O)/C=C/c1ccc(OC)c(OC(=O)[C@@]2(C)CC[C@]3(C)CC[C@]4(C)C(=CC(=O)[C@@H]5[C@@]6(C)CC[C@H](OC(=O)[C@@H](N)CC[Se]C)C(C)(C)[C@@H]6CC[C@]54C)[C@H]3C2)c1`, the IC50 was 6.93 µM in the test with MCF7, 10.1 µM with TERT-RPE1 and 3.27 µM in the test on MDA-MB-231 [4].
On the same counts, the results for `COC(=O)/C=C/c1ccc(OC(=O)[C@@]2(C)CC[C@]3(C)CC[C@]4(C)C(=CC(=O)[C@@H]5[C@@]6(C)CC[C@H](OC(=O)[C@@H](N)CC[Se]C)C(C)(C)[C@@H]6CC[C@]54C)[C@H]3C2)c(OC)c1` are 1.88 µM, 4.93 µM and 1.37 µM.
For `C[C@H]1[C@H](C)CC[C@]2(C(=O)OCCBr)CC[C@]3(C)C(=CC[C@@H]4[C@@]5(C)CC[C@H](O)C(C)(C)[C@@H]5CC[C@]43C)[C@H]12`, the IC50 with BGC-823 turned out to be 12.4 µM.
For `COC(=O)/C=C/c1ccc(OC(=O)[C@@]2(C)CC[C@]3(C)CC[C@]4(C)C(=CC(=O)[C@@H]5[C@@]6(C)CC[C@H](OC(=O)[C@@H](N)CC[Se]C)C(C)(C)[C@@H]6CC[C@]54C)[C@H]3C2)cc1`, the IC50 with MCF7 was determined as 6.02 µM; in the test with TERT-RPE1, 6.33 µM; in the test with MDA-MB-231 [4], 6.27 µM.
With `C[C@H]1[C@H](C)CC[C@]2(C(=O)OCCCCBr)CC[C@]3(C)C(=CC[C@@H]4[C@@]5(C)CC[C@H](O)C(C)(C)[C@@H]5CC[C@]43C)[C@H]12` [BROMOBUTYL-3BETA-HYDROXY-URS-12-EN-28-OATE], the IC50 in the test with BGC-823 is 10 µM.
On to `COC(=O)/C=C/c1cccc(OC(=O)[C@@]2(C)CC[C@]3(C)CC[C@]4(C)C(=CC(=O)[C@@H]5[C@@]6(C)CC[C@H](OC(=O)[C@@H](N)CCSC)C(C)(C)[C@@H]6CC[C@]54C)[C@H]3C2)c1`, for which the figures for the IC50 in the test on MCF7, in the test with TERT-RPE1 and in the test with MDA-MB-231 [4] were 7.2 µM, 8.49 µM and 3.54 µM, respectively.

The record behind these values is ChEMBL document CHEMBL4270495, “Oleanane-, ursane-, and quinone methide friedelane-type triterpenoid derivatives: Recent advances in cancer treatment” (Eur J Med Chem, 2017).
